Data reported in patent publication US10703761B2, “Bile acid receptor modulators and methods of use thereof” (City of Hope, priority 2016, dated 2020).
Entries after “also recorded” stand apart in the source; their conditions may differ.

Experiments:
FXR [1] = target: T1, FXR (Homo sapiens, UniProt Q96RI1); assay: GeneBLAzer cell-based FXR transactivation assay (FXR-UAS-bla HEK 293T cells)
T1 construct: the Gal4 DBD was fused to the LBD of FXR in this assay
T1 sequence (Q96RI1 262-486 limits assumed): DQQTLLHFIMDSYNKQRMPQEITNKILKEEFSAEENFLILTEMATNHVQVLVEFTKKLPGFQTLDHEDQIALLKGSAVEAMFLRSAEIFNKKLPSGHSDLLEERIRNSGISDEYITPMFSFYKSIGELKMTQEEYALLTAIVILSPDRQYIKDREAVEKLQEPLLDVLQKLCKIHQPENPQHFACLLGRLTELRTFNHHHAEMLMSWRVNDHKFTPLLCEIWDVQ
Method: To investigate the cellular activities of the novel berberine derivatives, we used a GeneBLAzer FXR cell-based assay, which detects the levels of a β-lactamase reporter controlled by a promoter containing the binding site of the DNA binding domain (DBD) of the GAL4 transcription factor; the Gal4 DBD was fused to the LBD of FXR in this assay. In typical test for agonists, DMSO (vehicle and negative control), 10 μM GW4064 (positive control), and titrations of GW4064, LCA or the 24 newly synthesized novel berberien derivatives analogs were mixed with GeneBLAzer FXR-UAS-bla HEK 293T cells. Reporter assays were performed after a 16 h incubation. […] For the experiments to evaluate the antagonistic activity, titrations of compounds were tested in the presence of 400 nM GW4064. […]
FXR transactivation assay was performed using GeneBLAzer FXR-UAS-bla HEK 293T cells (Invitrogen) as previously described with minor modifications. […] Plates were then incubated in the dark for 90 min at room temperature before measuring the fluorescent emissions at 460 nm and 535 nm (using excitation at 400 nm) with an Envision plate reader with bottom read capacity. […] The % Activation was calculated using Eq. 2.
[formula] […] The % Inhibition was calculated using Eq. 3. […]

FXR [2] = target: T2, FXR (Homo sapiens, UniProt Q96RI1); assay: FXR luciferase reporter assay, transient transfection with a synthetic FXR responsive reporter plasmid in HEK293 cells; assay type: cell-based
T2 construct: expressed in transfected cells; host or cells: HEK293 (transient)
T2 sequence (Q96RI1 1-486): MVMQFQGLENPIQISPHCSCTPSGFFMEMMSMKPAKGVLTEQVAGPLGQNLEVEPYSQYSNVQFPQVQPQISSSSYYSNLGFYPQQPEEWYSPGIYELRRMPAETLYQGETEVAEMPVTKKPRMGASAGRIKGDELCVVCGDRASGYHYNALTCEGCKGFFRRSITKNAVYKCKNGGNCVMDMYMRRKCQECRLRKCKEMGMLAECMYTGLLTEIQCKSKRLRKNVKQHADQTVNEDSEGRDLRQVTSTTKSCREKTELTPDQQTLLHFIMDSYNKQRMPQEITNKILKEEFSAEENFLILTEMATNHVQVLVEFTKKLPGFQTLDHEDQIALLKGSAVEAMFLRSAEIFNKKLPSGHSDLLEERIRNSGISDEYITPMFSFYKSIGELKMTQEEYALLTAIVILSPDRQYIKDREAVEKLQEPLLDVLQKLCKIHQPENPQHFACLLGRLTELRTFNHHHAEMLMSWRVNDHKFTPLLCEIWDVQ
T2 sequence (P19793 1-462 partner): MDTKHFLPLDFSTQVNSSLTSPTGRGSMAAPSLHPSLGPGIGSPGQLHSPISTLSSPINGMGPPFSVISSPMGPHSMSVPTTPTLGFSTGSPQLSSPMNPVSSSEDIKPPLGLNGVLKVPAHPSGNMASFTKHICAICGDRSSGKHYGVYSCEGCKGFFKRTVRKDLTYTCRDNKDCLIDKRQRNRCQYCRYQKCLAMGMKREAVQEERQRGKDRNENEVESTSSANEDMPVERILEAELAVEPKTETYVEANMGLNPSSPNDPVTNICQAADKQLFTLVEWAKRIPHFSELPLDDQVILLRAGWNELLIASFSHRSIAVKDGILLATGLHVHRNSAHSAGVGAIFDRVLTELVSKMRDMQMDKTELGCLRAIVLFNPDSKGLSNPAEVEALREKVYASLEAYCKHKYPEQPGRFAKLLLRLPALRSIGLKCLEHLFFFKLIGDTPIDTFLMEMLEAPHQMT
Method: Effect of berberine derivatives and γ-aminobutyric acid derivative on FXR inhibition was initially assessed using transient transfections with a synthetic FXR responsive reporter plasmid. HEK 293 Cells were treated with vehicle alone or 100 μM CDCA with or without compounds, as indicated. Results are luciferase expression normalized using the β-gal internal control.
TGR5-reporting activity was evaluated by luciferase assay. Treatments were performed in quadruplicate and normalized with β-galactosidase. HEK293 cells were transfected with FXR and RXRα, and FXRE-containing luciferase construct. Cells were treated with 10 μM of indicated compounds; luciferase was measured and normalized with β-galactosidase.
To evaluate TGR5 activity of compounds, cells were transfected 100 ng pCRE-luc reporter along with pCMV-galactosidase (10 ng) as an internal control for normalization of transfection efficiency. Plasmids were complexed with […] of Fugene 6 reagent (Promega, Madison, Wis.) in OptiMEM (Invitrogen, Carlsbad, Calif.) and cells were transfected for 18 h. The following day, cells were treated with vehicle and appropriate ligand as indicated. Luciferase and β-galactosidase activities were assayed 6 h later using Luciferase Assay System (Promega) and Galacto-Star (Applied Biosystems, Foster City, Calif.) reagents, respectively, and a MLX luminometer (Dynex Technologies, Chantilly, Va.). To evaluate the FXR activity of compounds, HEK293 cells were transfected with 25 ng of farnesoid X receptor expression plasmid (pCMX-hFXR), 25 ng of retinoid X receptor expression plasmid (pCMXhRXR), 100 ng of reporter plasmid (pEcREx6-TK-Luc), and 10 ng of pCMV-b-galactosidase as an internal control in each well, using Fugene 6 reagent. Approximately 18 h after transfection, cells were incubated for 12 h with different concentrations of each.

Row | FXR antagonist activity in cell-based FXR transactivation assay (FXR [1]) | melting point | FXR activity of compound alone (agonism) (FXR [2]; compound alone, compared with GW4064) | Compound | Inhibition of FXR activation by CDCA (FXR antagonism) (FXR [2]; CDCA 100 μM, compounds 10 μM)
1 | identified as FXR antagonists | 198.4 °C |  | COc1ccc2cc3[n+](cc2c1NCCc1ccc(O)c(O)c1)CCc1cc2c(cc1-3)OCO2 [DY322, Berberine-Dopamine Hybrid] | 
2 | identified as FXR antagonists | 228.7 °C |  | COc1ccc2cc3[n+](cc2c1NCc1cccc(B(O)O)c1)CCc1cc2c(cc1-3)OCO2 [DY323, Berberine-Phenylboronic Hybrid] | 
3 |  |  | no effect on FXR activity | O=C(O)CCCN1C(=O)c2ccccc2C1=O [DY419] | strongly inhibited FXR activation; also recorded: activated FXR receptor to exert FXR antagonistic biological function
